Biological target: T1, Recombinant human BACE-1 (rhBACE-1) (Homo sapiens, UniProt P56817)
T1 construct: purchased R&D Systems #ES004 and #931-AS, respectively (so in the source)
Test: Proteolytic cleavage of APP (glyco)peptides by BACE-1, RP-HPLC peak integration
Format: biochemical
Details: 100 μM substrate, 50 nM rhBACE-1, 0.1 M sodium acetate pH 4.0, 24 h, 37°C, dark; RP-HPLC peak integration at 214 nm, averaged from two injections, SD <5%
Description: All APP-based substrates were prepared as 10 mM stocks in DMSO. Before proteolysis, the activity of BACE-1 was verified by the reaction with the fluorogenic BACE-1substrate Mca-[…](Dnp)RR-NH2 ([Koike et al., 1999]) as per the manufacturer’s instructions. For the proteolysis assay, APP-based substrates were diluted in BACE-1 activity buffer (0.1 M sodium acetate, pH 4.0) to the final assay concentration of 100 μM. BACE-1 was diluted to 50 nM final concentration. Reactions were incubated for 24 h at 37°C in the dark. After the incubation period, the enzyme cleavage solutions containing APP-based substrates and BACE-1 were analyzed using the analytical RP-HPLC method on the Aeris C18 column with 0.1% TFA in water (A) and 0.1% TFA in acetonitrile (B) as eluents and 0–60% B as the elution gradient over 30 min with a flow rate of 0.8 ml/min, and detection at 214 nm or the Vydac Denali C18 column with 0.1% TFA in water (A) and 0.1% TFA in acetonitrile (B) as eluents and 0–60% B as the elution gradient over 30 min with a flow rate of 1 ml/min, and detection at 214 nm. The identity of intact and cleaved (N- and C-terminal) fragments of (glyco)peptides in the absence and presence of BACE-1 (β-secretase) was confirmed by MALDI-TOF and their percentages were evaluated by the integration of the RP-HPLC peaks (averaged from two injections).
Glycosylation can alter substrate recognition and impact enzyme activity in either a positive (enhancing) or negative (inhibiting) manner ([Goettig, 2016]; [Goth et al., 2018]). The mucin-type O-linked glycosylation of a protein may not only affect its conformation but also affect its transport and localization in the cell ([Matsuura et al., 1989]; [Chen et al., 2002]). Proteases are highly regulated by post-translational modifications and drive fate, localization, and activity of many proteins ([Bond, 2019]). Certain mutations can also affect the subcellular localization of the cleavage event by crucial proteases and mediate a different cellular mechanism for the protein ([Haass et al., 1995]). […] Therefore, similar enzyme cleavage assays with BACE-1 were set up to explore the effect of the Swedish mutation, length of the amino acid sequence, glycan position and valency on the proteolytic susceptibility of 3–12. BACE1 produced two fragments upon cleavage of (glyco)peptides, for which yields were determined after 24 h treatment. The yields of intact peptide and fragments were evaluated by the RP-HPLC peaks integration (Table 3, and the Supplementary Material S20–S32).
3. Enzyme cleavage assays with APP (glyco)peptides 3-12 by RP-HPLC and MALDI-TOF MS
For the BACE1 enzyme cleavage assay, APP-based (glyco)peptide substrates were diluted in BACE1 activity buffer and incubated with BACE1 for 24 h at 37 °C in the dark. After the incubation period, the enzyme cleavage solutions containing APP-based (glyco)peptide substrates and BACE1 were analyzed using analytical RP-HPLC.
RP-HPLC gradient on Phenomenex Aeris Peptide C18 column (150 x 4.6 mm, 3.6 µm, 100Å):
Eluents were 0.1% TFA in water (A) and 0.1% TFA in acetonitrile (B). The elution gradient was 0-60%B in 30 minutes with a flow rate of 0.8 mL/min. Detection was at λ = 214 nm.
S*/T*= Ser(-α-GalNAc) 1/Thr(-α-GalNAc) 2
(a) APP665-680, 3 in activity buffer
(b) APP665-680 (3) + BACE1 in activity buffer […]

T1 sequence (P56817 46-457 limits assumed): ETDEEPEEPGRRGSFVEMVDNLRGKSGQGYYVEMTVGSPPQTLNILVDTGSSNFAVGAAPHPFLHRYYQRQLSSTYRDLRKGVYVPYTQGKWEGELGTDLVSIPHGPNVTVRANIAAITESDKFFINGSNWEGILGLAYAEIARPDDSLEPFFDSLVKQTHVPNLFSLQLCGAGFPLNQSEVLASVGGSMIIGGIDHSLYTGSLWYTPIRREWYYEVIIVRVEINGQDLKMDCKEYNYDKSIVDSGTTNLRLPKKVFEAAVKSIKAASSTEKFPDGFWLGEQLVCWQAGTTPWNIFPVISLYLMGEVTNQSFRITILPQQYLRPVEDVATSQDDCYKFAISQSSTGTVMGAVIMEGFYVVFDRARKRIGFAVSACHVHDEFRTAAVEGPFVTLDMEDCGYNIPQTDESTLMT

Row | SMILES | BACE-1 activity, Cleaved (%) | BACE-1 activity, Recovered (%)
1 | CC[C@H](C)[C@H](N)C(=O)N[C@@H](CCCCN)C(=O)N[C@H](C(=O)N[C@@H](CCC(=O)O)C(=O)N[C@@H](CCC(=O)O)C(=O)N[C@H](C(=O)N[C@@H](CO)C(=O)N[C@@H](CCC(=O)O)C(=O)N[C@H](C(=O)N[C@@H](CC(N)=O)C(=O)N[C@@H](CC(C)C)C(=O)N[C@@H](CC(=O)O)C(=O)N[C@@H](C)C(=O)N[C@@H](CCC(=O)O)C(=O)N[C@@H](Cc1ccccc1)C(=O)N[C@@H](CCCNC(=N)N)C(=O)N[C@@H](Cc1c[nH]cn1)C(=O)N[C@@H](CC(=O)O)C(=O)N[C@@H](CO)C(=O)NCC(N)=O)C(C)C)[C@@H](C)CC)[C@@H](C)O [compound 10] | 79.7% | 20.3%
2 | CC[C@H](C)[C@H](N)C(=O)N[C@@H](CCCCN)C(=O)N[C@H](C(=O)N[C@@H](CCC(=O)O)C(=O)N[C@@H](CCC(=O)O)C(=O)N[C@H](C(=O)N[C@@H](CO)C(=O)N[C@@H](CCC(=O)O)C(=O)N[C@H](C(=O)N[C@@H](CC(N)=O)C(=O)N[C@@H](CC(C)C)C(=O)N[C@@H](CC(=O)O)C(=O)N[C@@H](C)C(=O)N[C@@H](CCC(=O)O)C(=O)N[C@@H](Cc1ccccc1)C(=O)N[C@@H](CCCNC(=N)N)C(=O)N[C@@H](Cc1c[nH]cn1)C(=O)N[C@@H](CC(=O)O)C(=O)N[C@@H](CO)C(=O)NCC(N)=O)C(C)C)[C@@H](C)CC)[C@@H](C)O[C@H]1O[C@H](CO)[C@H](O)[C@H](O)[C@H]1NC(C)=O [compound 11] | 98.1% | 1.90%
3 | CC[C@H](C)[C@H](NC(=O)[C@@H](N)CCC(=O)O)C(=O)N[C@@H](CO[C@H]1O[C@H](CO)[C@H](O)[C@H](O)[C@H]1NC(C)=O)C(=O)N[C@@H](CCC(=O)O)C(=O)N[C@H](C(=O)N[C@@H](CCCCN)C(=O)N[C@@H](CCSC)C(=O)N[C@@H](CC(=O)O)C(=O)N[C@@H](C)C(=O)N[C@@H](CCC(=O)O)C(=O)N[C@@H](Cc1ccccc1)C(=O)N[C@@H](CCCNC(=N)N)C(=O)N[C@@H](Cc1c[nH]cn1)C(=O)N[C@@H](CC(=O)O)C(=O)N[C@@H](CO)C(=O)NCC(N)=O)C(C)C [compound 4] | 1.40% | 98.6%
4 | CC[C@H](C)[C@H](N)C(=O)N[C@@H](CCCCN)C(=O)N[C@H](C(=O)N[C@@H](CCC(=O)O)C(=O)N[C@@H](CCC(=O)O)C(=O)N[C@H](C(=O)N[C@@H](CO)C(=O)N[C@@H](CCC(=O)O)C(=O)N[C@H](C(=O)N[C@@H](CCCCN)C(=O)N[C@@H](CCSC)C(=O)N[C@@H](CC(=O)O)C(=O)N[C@@H](C)C(=O)N[C@@H](CCC(=O)O)C(=O)N[C@@H](Cc1ccccc1)C(=O)N[C@@H](CCCNC(=N)N)C(=O)N[C@@H](Cc1c[nH]cn1)C(=O)N[C@@H](CC(=O)O)C(=O)N[C@@H](CO)C(=O)NCC(N)=O)C(C)C)[C@@H](C)CC)[C@@H](C)O [compound 7] | 3.40% | 96.6%
5 | CC[C@H](C)[C@H](NC(=O)[C@@H](N)CCC(=O)O)C(=O)N[C@@H](CO)C(=O)N[C@@H](CCC(=O)O)C(=O)N[C@H](C(=O)N[C@@H](CCCCN)C(=O)N[C@@H](CCSC)C(=O)N[C@@H](CC(=O)O)C(=O)N[C@@H](C)C(=O)N[C@@H](CCC(=O)O)C(=O)N[C@@H](Cc1ccccc1)C(=O)N[C@@H](CCCNC(=N)N)C(=O)N[C@@H](Cc1c[nH]cn1)C(=O)N[C@@H](CC(=O)O)C(=O)N[C@@H](CO)C(=O)NCC(N)=O)C(C)C [compound 3] | 4.48% | 95.5%
